# Measurements: patent US10273290B2, “Hydrocarbon double-stapled stabilized HIV-1 GP41 heptad repeat domain peptides” (DANA-FARBER CANCER INSTITUTE, INC., priority 2009, dated 2019)
# Bridge positions count the residues as written; N and C are the ends. Square brackets hold non-standard residues; d marks the D form. Peptide text beside a SMILES is read from it. S5 = C=CCCC[C@](C)(N)C(=O)O; Nle = CCCC[C@H](N)C(=O)O
# Tests used:
# Chymotrypsin, pH 7 = test: Chymotrypsin, pH 7
# From the text: Table printed on a drawing sheet, FIG. 17C
# Title: Chymotrypsin, pH 7
# First reader's note: The table also serves as the legend of the plot of fraction intact over time; the line and marker symbols are left out.
# [1] = tested on: resistant primary R5 isolate YU2; test: Luciferase-based HIV-1 infectivity assay, YU2; type: cell-based; details: compared to T649v
# From the text: Also the direct inhibitory activity of modified polypeptides and the antibodies targeted thereto can be quantified based upon their capacity to directly block HIV infection of CD4-positive and CCR5-expressing canine thymus cells. Recombinant HIV-1 viruses (eg. HXBc2, YU2, and additional strains available through the NIH AIDS Research and Reference Reagent Program) expressing firefly luciferase and containing the indicated envelope glycoproteins can be used to infect Cf2Th-CD4-CCR5/CXCR4 cells in the presence of serially diluted modified HIV-1 gp41 polypeptides or antibodies targeted thereto After 48 hours, the cells are lysed and luciferase activity is quantified (Si, Z. H., M. Cayabyab, and J. Sodroski, Journal of Virology, 2001. 75(9): p. 4208-4218 Si, Z. H., et al., PNAS, 2004. 101(14): p. 5036-5041). The identical experiment is performed with the amphotropic murine leukemia virus (AMLV), to monitor for any nonspecific effects of the modified polypeptides or antibodies. […]
# HIV-1 infectivity assays were performed using known methods (Madani et al., 2007 Inhibition of human immunodeficiency virus envelope glycoprotein-mediated single cell lysis by low-molecular-weight antagonists of viral entry. J Virol, 81: 532-538; and Si et al., 2001 Envelope glycoprotein determinants of neutralization resistance in a simian-human immunodeficiency virus (SHIV-HXBc2P 3.2) derived by passage in monkeys. J Virol, 75:4208-4218; both incorporated herein by reference). […] D-luciferin (50 μL of 1 mM stock in 100 μL luciferin buffer) is then added to each well and luciferase activity measured using a luminometer (EG&G Berthold).
# To assess the functional impact of hydrocarbon stapling on gp41-based fusion inhibitor activity, SAH-gp41 peptides were tested and compared to their unmodified counterparts in a luciferase-based HIV-1 infectivity assay. Recombinant HIV-1 bearing the envelope glycoproteins from three distinct HIV-1 strains, HXBc2, ADA, and HXBc2P 3.2, and a negative control virus bearing the amphotropic murine leukemia virus (A-MLV) envelope glycoproteins, were evaluated. […]
# [2] = tested on: HIV-1 HXBc2 virus bearing HR1 double mutations V38A/N42T and V38E/N42S; test: HIV-1 infectivity assay, enfuvirtide-resistant HR1 double mutants; type: cell-based
# Description: (§1) HIV-1 infectivity assays were performed using known methods (Madani et al., 2007 Inhibition of human immunodeficiency virus envelope glycoprotein-mediated single cell lysis by low-molecular-weight antagonists of viral entry. J Virol, 81: 532-538; and Si et al., 2001 Envelope glycoprotein determinants of neutralization resistance in a simian-human immunodeficiency virus (SHIV-HXBc2P 3.2) derived by passage in monkeys. J Virol, 75:4208-4218; both incorporated herein by reference). […] Virus-containing supernatants were harvested 24-30 hr after transfection, filtered, aliquoted, and stored at −80° C. Target cells were seeded at a density of 6×10^3 cells/well in 96-well plates 24 hours prior to infection. Cf2Th-CD4-CCR5 cells were used for infections by viruses with the ADA, YU2, and A-MLV envelope glycoproteins, and Cf2Th-CD4-CXCR4 cells used for HXBc2, HXBc2P 3.2, and A-MLV. On the day of infection, the structured peptides (0-3 μM) were added to recombinant viruses (10,000 RT units) to a final volume of 50 μL and incubated at 37° C. for 30 min. Media was then removed and the target cells incubated with virus-peptide mixture for 48 hours at 37° C. The media was again removed and the cells lysed with 30 μL of passive lysis buffer (Promega) and three freeze-thaw cycles.
# pepsin = test: Protease resistance assay, pepsin at pH 2
# Method in brief: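 Peptide from a 1 mM DMSO stock was incubated with pepsin in its appropriate buffer. Intact peptide was quantified over time by serial LC-MS injections, normalized to a 100 μM acetylated tryptophan carboxamide internal standard. Half-life came from nonlinear regression of the exponential decay.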
# chymotrypsin = biological target: T1, chymotrypsin (Bos taurus, UniProt P00766); test: Protease resistance assay, chymotrypsin (LC/MS); type: in vitro ADME; details: pH 7.4, 0.5 chymotrypsin, peptide 25 μM
# T1 construct: purchased Sigma
# [3] = tested on: HIV-1 strains HXBc2, ADA, and HXBc2P 3.2; test: Luciferase-based HIV-1 infectivity assay, three strains; type: cell-based
# Description: Also the direct inhibitory activity of modified polypeptides and the antibodies targeted thereto can be quantified based upon their capacity to directly block HIV infection of CD4-positive and CCR5-expressing canine thymus cells. […] The identical experiment is performed with the amphotropic murine leukemia virus (AMLV), to monitor for any nonspecific effects of the modified polypeptides or antibodies.
# as §1
# Recombinant HIV-1 bearing the envelope glycoproteins from three distinct HIV-1 strains, HXBc2, ADA, and HXBc2P 3.2, and a negative control virus bearing the amphotropic murine leukemia virus (A-MLV) envelope glycoproteins, were evaluated.
compound,measurement,setting,value
"CCCC[C@H](NC(C)=O)C(=O)N[C@H](C(=O)N[C@@H](Cc1c[nH]c2ccccc12)C(=O)N[C@@]1(C)CCCC=CCCC[C@@](C)(C(=O)N[C@@H](CCC(=O)O)C(=O)N[C@H](C(=O)N[C@@H](CC(N)=O)C(=O)N[C@@H](CC(N)=O)C(=O)N[C@@H](Cc2ccc(O)cc2)C(=O)N[C@H](C(=O)N[C@@H](CO)C(=O)N[C@@H](CC(C)C)C(=O)N[C@H](C(=O)N[C@@H](Cc2c[nH]cn2)C(=O)N[C@@H](CO)C(=O)N[C@@H](CC(C)C)C(=O)N[C@H](C(=O)N[C@@H](CCC(=O)O)C(=O)N[C@@H](CCC(=O)O)C(=O)N[C@@H](CO)C(=O)N[C@@H](CCC(N)=O)C(=O)N[C@@H](CC(N)=O)C(=O)N[C@@H](CCC(N)=O)C(=O)N[C@@]2(C)CCCC=CCCC[C@@](C)(C(=O)N[C@@H](CCC(N)=O)C(=O)N[C@@H](CCC(=O)O)C(=O)N[C@@H](CC(C)C)C(=O)N[C@@H](CC(C)C)C(=O)N[C@@H](CCC(=O)O)C(N)=O)NC(=O)[C@H](CC(N)=O)NC(=O)[C@H](CCCCN)NC(=O)[C@H](CCC(=O)O)NC2=O)[C@@H](C)CC)[C@@H](C)CC)[C@@H](C)O)[C@@H](C)CC)NC(=O)[C@H](CC(=O)O)NC(=O)[C@H](Cc2c[nH]c3ccccc23)NC(=O)[C@H](CCC(=O)O)NC1=O)[C@@H](C)O [SAH-gp41(626-662)(A, F)] (Ac-[Nle]TW[S5]EWD[S5]EINNYTSLIHSLIEESQNQ[S5]EKN[S5]QELLE-NH2; staple 4-8, 28-32; N-terminus and C-terminus assumed)",Half-Life,"Chymotrypsin, pH 7",335 min
same,"anti-YU2 activity, in words",[1],enhanced anti-YU2 activity
same,"functional activity against HR1 double-mutant HIV-1, in words",[2],dose-responsively suppressed HIV-1 infectivity
same,half-life at 25 μM,"pepsin; pepsin (isolated protease) in buffer, pH 2",2040 min
same,"acid protease resistance, in words",pepsin; pepsin at pH 2,striking acid protease resistance
same,Half-Life,chymotrypsin,301 min
same,"anti-HIV-1 (anti-viral) activity, in words",[3],potent anti-viral activity
